Patent US10717746B2, “Chemical compounds” (ASTRAZENECA AB, priority 2015, dated 2020)

Columns and labels:
CDK9/CycT1 [1] = biological target: T1, CDK9/CycT1 (Homo sapiens (Human), UniProt P50750); test: CDK9 kinase assay, ATP concentration at Km (mobility shift, Caliper LC3000); type: biochemical; settings: 6 μM ATP, 3 nM CDK9/CycT1; read-out: CDK9 ATP conc. at Km (IC50)
Summary of the method: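 3 nM CDK9/CycT1 with 6 µM ATP and 1.5 µM FITC-peptide (HEPES pH 7.2) was preincubated with compound 15 min at 25 °C. Reaction started with 10 mM MgCl2 and ran 90 min at 25 °C. Turnover was measured by mobility-shift separation of phosphorylated and unphosphorylated peptide.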

CDK9/CycT1 [2] = biological target: T1, CDK9/CycT1; test: CDK9 kinase assay, high ATP concentration (5 mM ATP); type: biochemical; settings: 1.5 nM CDK9, read-out: CDK9 High ATP conc. (IC50)
Summary of the method: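 Caliper mobility-shift read-out of phosphorylated vs unphosphorylated FITC-peptide (1.5 μM), giving percent turnover. Final 1.5 nM CDK9/CycT1 and 5 mM ATP in 50 mM HEPES pH 7.2, 1 mM DTT, 10 mM MgCl2; compound preincubated 15 min, reaction 90 min at 25° C, stopped with EDTA.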

[3] = system: phosphorylation of RNA Polymerase II (RNAPII) at the Ser2 site in MCF7 cells; test: MCF7 pSer2 RNAPII MOA assay (immunofluorescence); type: cell-based; settings: Homo sapiens, MCF7, 6 h, 6-hr treatment, read-out: p-Ser 2 RNAPII (IC50)
Summary of the method: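 MCF7 cells (2500/well), plated overnight, were treated for 6 h at 37° C. with CDK9 inhibitors in a 7-point dose response from 3 μM to 0.004 μM. Cells were then fixed, permeabilized and immunostained for Ser2-phospho RNAPII with Alexa Fluor 488 secondary plus DAPI. Per-well phosphorylation was read by microplate cytometry.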

MV411 cells = test: MV411 caspase activity assay (Caspase-Glo 3/7); type: cell-based; settings: Homo sapiens, MV4-11, 6 h, 6-hr treatment, caspase 3/7 induction
Summary of the method: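 MV411 AML cells (3000/well) were plated overnight, then treated with compound for 6 h at 37 °C. Caspase-3/7 activity was read as luminescence after 30 min with Caspase-Glo 3/7 reagent at room temperature.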

T1 sequence (P50750 whole entry): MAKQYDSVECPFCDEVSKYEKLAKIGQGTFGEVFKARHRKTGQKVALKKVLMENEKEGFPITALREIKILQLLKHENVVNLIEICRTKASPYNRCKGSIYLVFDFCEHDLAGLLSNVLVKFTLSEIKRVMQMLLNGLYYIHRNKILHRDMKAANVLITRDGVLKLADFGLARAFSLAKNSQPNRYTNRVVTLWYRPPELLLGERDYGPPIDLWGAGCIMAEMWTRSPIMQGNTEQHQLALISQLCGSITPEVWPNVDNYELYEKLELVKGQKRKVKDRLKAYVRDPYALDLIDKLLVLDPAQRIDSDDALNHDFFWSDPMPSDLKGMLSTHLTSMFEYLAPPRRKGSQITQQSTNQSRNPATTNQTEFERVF
T1 sequence (O60563 whole entry partner): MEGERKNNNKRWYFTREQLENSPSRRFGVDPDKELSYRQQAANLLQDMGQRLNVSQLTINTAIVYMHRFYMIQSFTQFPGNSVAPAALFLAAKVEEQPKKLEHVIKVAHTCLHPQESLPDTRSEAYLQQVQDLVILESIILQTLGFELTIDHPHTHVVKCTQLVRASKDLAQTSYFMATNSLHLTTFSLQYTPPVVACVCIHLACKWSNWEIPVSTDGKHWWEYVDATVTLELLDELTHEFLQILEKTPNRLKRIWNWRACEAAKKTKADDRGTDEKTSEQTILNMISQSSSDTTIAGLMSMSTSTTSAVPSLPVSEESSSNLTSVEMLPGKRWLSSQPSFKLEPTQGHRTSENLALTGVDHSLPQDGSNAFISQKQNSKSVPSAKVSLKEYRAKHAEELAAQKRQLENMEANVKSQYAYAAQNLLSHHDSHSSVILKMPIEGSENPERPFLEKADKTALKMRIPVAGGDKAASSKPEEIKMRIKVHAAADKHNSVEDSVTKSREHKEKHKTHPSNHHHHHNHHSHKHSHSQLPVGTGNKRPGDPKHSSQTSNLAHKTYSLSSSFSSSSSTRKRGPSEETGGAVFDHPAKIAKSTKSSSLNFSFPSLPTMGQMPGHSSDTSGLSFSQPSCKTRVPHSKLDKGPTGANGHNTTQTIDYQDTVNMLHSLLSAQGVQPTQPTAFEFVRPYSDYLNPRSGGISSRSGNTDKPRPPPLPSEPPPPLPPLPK

| SMILES | IC50 (CDK9/CycT1 [1]) [nM] | IC50 (CDK9/CycT1 [2]) [nM] | IC50 [3] [nM] | IC50 (MV411 cells) [nM] |
| --- | --- | --- | --- | --- |
| CC(=O)N[C@@H]1CCC[C@H](C(=O)Nc2cc(-c3nnn4c3CCCC4)c(Cl)cn2)C1 [Example 49, (1S,3R)-3-acetamido-N-(5-chloro-4-(4,5,6,7-tetrahydro-[1,2,3]triazolo[1,5-a]pyridin-3-yl)pyridin-2-yl)cyclohexanecarboxamide] | 39 | 4400 | > 2870 | 7980 |
| CC1(C)Cc2c(-c3cc(NC(=O)[C@H]4CCC[C@@H](N)C4)ncc3F)cnn2C1 [Example 54, (1S,3R)-3-amino-N-(4-(5,5-dimethyl-5,6-dihydro-4H-pyrrolo[1,2-b]pyrazol-3-yl)-5-fluoropyridin-2-yl)cyclohexane-1-carboxamide] | 10 | 777 | 455 | 431 |
| CC1(C)Cc2ncc(-c3cc(NC(=O)[C@H]4C[C@@H](O)C4)ncc3Cl)n2C1 [Example 58, cis-N-(5-chloro-4-(6,6-dimethyl-6,7-dihydro-5H-pyrrolo[1,2-a]imidazol-3-yl)pyridin-2-yl)-3-hydroxycyclobutanecarboxamide] | < 3 | 41 | 17 | 76 |
| CC(=O)N[C@@H]1CCC[C@H](C(=O)Nc2cc(-c3cnn4c3CCCC4)c(F)cn2)C1 [Example 63, (1S,3R)-3-acetamido-N-(5-fluoro-4-(4,5,6,7-tetrahydropyrazolo[1,5-a]pyridin-3-yl)pyridin-2-yl)cyclohexanecarboxamide] | < 3 | 51 | 104 | 159 |
| CC(=O)N[C@@H]1CCC[C@H](C(=O)Nc2cc(-c3cnn4c3CCCCC4)c(Cl)cn2)C1 [Example 66, (1S,3R)-3-acetamido-N-(5-chloro-4-(5,6,7,8-tetrahydro-4H-pyrazolo[1,5-a]azepin-3-yl)pyridin-2-yl)cyclohexanecarboxamide] | < 3 | 23 | 92 | 183 |
| O=C(N[C@@H]1CCC[C@H](C(=O)Nc2cc(-c3cnn4c3CCCC4)c(Cl)cn2)C1)C1COC1 [Example 67, N-((1R,3S)-3-((5-chloro-4-(4,5,6,7-tetrahydropyrazolo[1,5-a]pyridin-3-yl)pyridin-2-yl)carbamoyl)cyclohexyl)oxetane-3-carboxamide] | < 3 | 19 | 62 | 99 |
| CC(=O)N[C@@H]1CCC[C@H](C(=O)Nc2cc(-c3cnn4c3CCCCC4)c(F)cn2)C1 [Example 74, (1S,3R)-3-acetamido-N-(5-fluoro-4-(5,6,7,8-tetrahydro-4H-pyrazolo[1,5-a]azepin-3-yl)pyridin-2-yl)cyclohexanecarboxamide] | < 3 | 39 | 192 | 281 |
| Cc1cnc(NC(=O)[C@H]2CCC[C@@H](NC(=O)CO)C2)cc1-c1cnn2c1CC(C)(C)C2 [Example 75, (1S,3R)—N-(4-(5,5-dimethyl-5,6-dihydro-4H-pyrrolo[1,2-b]pyrazol-3-yl)-5-methylpyridin-2-yl)-3-(2-hydroxyacetamido)cyclohexanecarboxamide] | < 3 | 29 | 67 | 111 |
| Cc1cnc(NC(=O)[C@H]2CCC[C@@H](NC(=O)C3COC3)C2)cc1-c1cnn2c1CC(C)(C)C2 [Example 76, N-((1R,3S)-3-((4-(5,5-dimethyl-5,6-dihydro-4H-pyrrolo[1,2-b]pyrazol-3-yl)-5-methylpyridin-2-yl)carbamoyl)cyclohexyl)oxetane-3-carboxamide] | < 3 | 9 | 38 | 36 |
| CC(=O)N[C@@H]1CCC[C@H](C(=O)Nc2cc(-c3cnn4c3CCCC4)c(C)cn2)C1 [Example 77, (1S,3R)-3-acetamido-N-(5-methyl-4-(4,5,6,7-tetrahydropyrazolo[1,5-a]pyridin-3-yl)pyridin-2-yl)cyclohexanecarboxamide] | 4 | 213 | 338 | 543 |
| CC(=O)N[C@@H]1CCC[C@H](C(=O)Nc2cc(-c3cnn4c3CCCC4O)c(Cl)cn2)C1 (stereo partly drawn) [Example 78, (1S,3R)-3-acetamido-N-(5-chloro-4-(7-hydroxy-4,5,6,7-tetrahydropyrazolo[1,5-a]pyridin-3-yl)pyridin-2-yl)cyclohexanecarboxamide] | < 3 | 60 | 720 | 1230 |
| CC(=O)N[C@@H]1CCC[C@H](C(=O)Nc2cc(-c3cn[nH]c3CCCCO)c(Cl)cn2)C1 [Example 78a, (1S,3R)-3-acetamido-N-(5-chloro-4-(5-(4-hydroxybutyl)-1H-pyrazol-4-yl)pyridin-2-yl)cyclohexanecarboxamide] | < 3 | 85 | > 2630 | 7130 |

More lines, now with the values ahead:

| IC50 (CDK9/CycT1 [1]) [nM] | IC50 (CDK9/CycT1 [2]) [nM] | IC50 [3] [nM] | IC50 (MV411 cells) [nM] | SMILES |
| --- | --- | --- | --- | --- |
| < 3 | < 4 | 9 | 12 | CC1(C)Cc2c(-c3cc(NC(=O)[C@H]4CCC[C@@H](NC(=O)[C@H]5CCCO5)C4)ncc3Cl)cnn2C1 [Example 46, (R)—N-((1R,3S)-3-((5-chloro-4-(5,5-dimethyl-5,6-dihydro-4H-pyrrolo[1,2-b]pyrazol-3-yl)pyridin-2-yl)carbamoyl)cyclohexyl)tetrahydrofuran-2-carboxamide] |
| < 3 | 3 | 40 | 15 | CC(=O)N[C@@H]1CC[C@H](C(=O)Nc2cc(-c3cnn4c3CC(C)(C)C4)c(Cl)cn2)C1 [Example 48, (1S,3R)-3-acetamido-N-(5-chloro-4-(5,5-dimethyl-5,6-dihydro-4H-pyrrolo[1,2-b]pyrazol-3-yl)pyridin-2-yl)cyclopentanecarboxamide] |
| < 3 | 5 | 19 | 26 | CC(=O)N[C@@H]1CCC[C@H](C(=O)Nc2cc(-c3cnc4n3CC(C)(C)C4)c(F)cn2)C1 [Example 50, (1S,3R)-3-acetamido-N-(4-(6,6-dimethyl-6,7-dihydro-5H-pyrrolo[1,2-a]imidazol-3-yl)-5-fluoropyridin-2-yl)cyclohexanecarboxamide] |
| < 3 | < 3 | 10 | 15 | CC(=O)N[C@@H]1CCC[C@H](C(=O)Nc2cc(-c3cnn4c3CC(C)(C)CC4)c(F)cn2)C1 [Example 51, (1S,3R)-3-acetamido-N-(4-(5,5-dimethyl-4,5,6,7-tetrahydropyrazolo[1,5-a]pyridin-3-yl)-5-fluoropyridin-2-yl)cyclohexanecarboxamide] |
| < 3 | 148 | 292 | 228 | CC1(C)CCn2ncc(-c3cc(NC(=O)[C@H]4CCC[C@@H](N)C4)ncc3F)c2C1 [Example 51a, (1S,3R)-3-amino-N-(4-(5,5-dimethyl-4,5,6,7-tetrahydropyrazolo[1,5-a]pyridin-3-yl)-5-fluoropyridin-2-yl)cyclohexanecarboxamide] |
| < 3 | < 3 | 12 | 13 | CC1(C)Cc2c(-c3cc(NC(=O)[C@H]4CCC[C@@H](NC(=O)[C@H]5C[C@@H](O)C5)C4)ncc3Cl)cnn2C1 [Example 53, (1S,3R)—N-(5-chloro-4-(5,5-dimethyl-5,6-dihydro-4H-pyrrolo[1,2-b]pyrazol-3-yl)pyridin-2-yl)-3-(cis-3-hydroxycyclobutanecarboxamido)cyclohexanecarboxamide] |
| < 3 | < 3 | 7 | 10 | CC1(C)Cc2c(-c3cc(NC(=O)[C@H]4CCC[C@@H](NC(=O)C5(O)CC5)C4)ncc3F)cnn2C1 [Example 55, (1S,3R)—N-(4-(5,5-dimethyl-5,6-dihydro-4H-pyrrolo[1,2-b]pyrazol-3-yl)-5-fluoropyridin-2-yl)-3-(1-hydroxycyclopropanecarboxamido)cyclohexanecarboxamide] |
| < 3 | 4 | 29 | 22 | CC1(C)Cc2ncc(-c3cc(NC(=O)[C@H]4CCC[C@@H](NC(=O)C5(O)CC5)C4)ncc3Cl)n2C1 [Example 56, (1S,3R)—N-(5-chloro-4-(6,6-dimethyl-6,7-dihydro-5H-pyrrolo[1,2-a]imidazol-3-yl)pyridin-2-yl)-3-(1-hydroxycyclopropanecarboxamido)cyclohexanecarboxamide] |
| < 3 | 4 | 28 | 53 | CC1(C)Cc2ncc(-c3cc(NC(=O)[C@H]4CCC[C@@H](NC(=O)C5COC5)C4)ncc3Cl)n2C1 [Example 57, N-((1R,3S)-3-((5-chloro-4-(6,6-dimethyl-6,7-dihydro-5H-pyrrolo[1,2-a]imidazol-3-yl)pyridin-2-yl)carbamoyl)cyclohexyl)oxetane-3-carboxamide] |
